Tested on: not given
Assay: not given
Settings: total plasma, clinically relevant dose as in column Oral Dose; ref [64]–[73]; cited from earlier work

Compound	Cmax [nM]
OC(Cn1cncn1)(Cn1cncn1)c1ccc(F)cc1F [Fluconazole]	34600
CCC(C)n1ncn(-c2ccc(N3CCN(c4ccc(OCC5COC(Cn6cncn6)(c6ccc(Cl)cc6Cl)O5)cc4)CC3)cc2)c1=O (stereo not shown) [Itraconazole]	919
CC(C)(O)c1ccccc1CC[C@@H](SCC1(CC(=O)O)CC1)c1cccc(/C=C/c2ccc3ccc(Cl)cc3n2)c1 [Montelukast]	925
CC(C)c1nc(CN(C)C(=O)N[C@H](C(=O)N[C@@H](Cc2ccccc2)C[C@H](O)[C@H](Cc2ccccc2)NC(=O)OCc2cncs2)C(C)C)cs1 [Ritonavir]	15300

Molecular target: T1, CYP26B1 (Homo sapiens, UniProt Q9NR63)
T1 sequence (Q9NR63 1-512): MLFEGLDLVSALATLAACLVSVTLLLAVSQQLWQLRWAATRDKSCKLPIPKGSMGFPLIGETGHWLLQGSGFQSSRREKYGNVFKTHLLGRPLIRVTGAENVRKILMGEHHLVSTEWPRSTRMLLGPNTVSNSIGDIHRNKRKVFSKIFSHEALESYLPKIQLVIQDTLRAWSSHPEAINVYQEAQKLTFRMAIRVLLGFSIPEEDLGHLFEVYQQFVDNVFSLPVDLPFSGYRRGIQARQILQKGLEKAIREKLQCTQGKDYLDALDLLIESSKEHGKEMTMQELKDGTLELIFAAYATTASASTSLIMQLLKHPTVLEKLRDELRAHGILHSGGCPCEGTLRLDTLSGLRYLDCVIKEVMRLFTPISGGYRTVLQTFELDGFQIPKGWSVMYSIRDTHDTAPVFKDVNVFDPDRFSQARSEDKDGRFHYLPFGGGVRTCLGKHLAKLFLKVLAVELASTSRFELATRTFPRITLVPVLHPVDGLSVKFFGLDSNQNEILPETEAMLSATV
Assay: Inhibition of CYP26B1-catalyzed tazarotenic acid sulfoxide formation
Type: biochemical
Settings: CYP26B1 IC50, tazarotenic acid, recombinant CYP26B1; probe tazarotenic acid sulfoxide formation; ± standard error

Compound	IC50 [nM]
OC(Cn1cncn1)(Cn1cncn1)c1ccc(F)cc1F [Fluconazole]	19800 ± 3210
CCC(C)n1ncn(-c2ccc(N3CCN(c4ccc(OCC5COC(Cn6cncn6)(c6ccc(Cl)cc6Cl)O5)cc4)CC3)cc2)c1=O (stereo not shown) [Itraconazole]	160 ± 20
CC(C)(O)c1ccccc1CC[C@@H](SCC1(CC(=O)O)CC1)c1cccc(/C=C/c2ccc3ccc(Cl)cc3n2)c1 [Montelukast]	610 ± 90
C=C(c1ccc(C(=O)O)cc1)c1cc2c(cc1C)C(C)(C)CCC2(C)C [Bexarotene]	1600 ± 270

Same assay, conditions: read-out: CYP26B1 IC50, tazarotenic acid; recombinant CYP26B1; probe tazarotenic acid sulfoxide formation; ± standard error

Compound	IC50 [nM]
CCC(CC)C(c1ccc(Nc2nc3ccccc3s2)cc1)n1cncn1 (stereo not shown) [Talarazole]	1 ± 1
Clc1cccc(C(c2ccc3[nH]cnc3c2)n2ccnc2)c1 (stereo not shown) [Liarazole]	10 ± 10
CC1(C)CCC(C)(C)c2cc(C3(c4ccc(C(=O)O)cc4)OCCO3)ccc21 [SR11237]	6860 ± 460
CC1(C)CCC(C)(C)c2cc(C#Cc3ccc(C(=O)O)cc3)ccc21 [EC23]	3450 ± 2800
CC1(C)CCC(C)(C)c2cc(NC(=O)c3ccc(C(=O)O)cc3)ccc21 [AM80]	9210 ± 830
O=C(O)c1ccc2cc(-c3ccc(O)c(C45CC6CC(CC(C6)C4)C5)c3)ccc2c1 [CD437]	140 ± 50
CC1(C)CCC(C)(C)c2cc(C3(c4ccc5cc(C(=O)O)ccc5c4)SCCS3)ccc21 [MM11253]	1250 ± 440

Molecular target: T2, CYP2C8 (Homo sapiens, UniProt P10632)
T2 sequence (P10632 1-490): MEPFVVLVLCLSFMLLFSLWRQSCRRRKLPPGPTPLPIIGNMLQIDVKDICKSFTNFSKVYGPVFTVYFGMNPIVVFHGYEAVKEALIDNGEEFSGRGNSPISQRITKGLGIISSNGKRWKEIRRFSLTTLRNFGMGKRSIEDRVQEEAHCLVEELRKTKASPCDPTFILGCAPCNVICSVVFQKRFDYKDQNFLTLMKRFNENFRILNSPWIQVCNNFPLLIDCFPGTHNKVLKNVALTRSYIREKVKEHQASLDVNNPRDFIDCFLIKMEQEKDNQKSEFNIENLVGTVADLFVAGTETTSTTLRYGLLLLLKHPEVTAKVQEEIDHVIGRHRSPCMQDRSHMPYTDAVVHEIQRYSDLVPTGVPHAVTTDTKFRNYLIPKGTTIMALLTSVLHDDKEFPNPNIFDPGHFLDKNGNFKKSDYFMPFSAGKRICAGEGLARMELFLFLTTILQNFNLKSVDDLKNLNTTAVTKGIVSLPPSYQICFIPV
Assay: not given
Settings: read-out: CYP2C8 IC50; substrate amodiaquine; ref [50]; cited from earlier work

Compound	IC50 [nM]
OC(Cn1cncn1)(Cn1cncn1)c1ccc(F)cc1F [Fluconazole]	48900

Same assay, conditions: read-out: CYP2C8 IC50; substrate paclitaxel; ref Unpublished Data; cited from earlier work

Compound	IC50 [nM]
CCC(C)n1ncn(-c2ccc(N3CCN(c4ccc(OCC5COC(Cn6cncn6)(c6ccc(Cl)cc6Cl)O5)cc4)CC3)cc2)c1=O (stereo not shown) [Itraconazole]	2160 ± 410

Tested on: not given
Assay: not given
Settings: human, in vivo

Compound	Cmax,u [nM]
OC(Cn1cncn1)(Cn1cncn1)c1ccc(F)cc1F [Fluconazole]	30794
CCC(C)n1ncn(-c2ccc(N3CCN(c4ccc(OCC5COC(Cn6cncn6)(c6ccc(Cl)cc6Cl)O5)cc4)CC3)cc2)c1=O (stereo not shown) [Itraconazole]	1.80
CC(C)(O)c1ccccc1CC[C@@H](SCC1(CC(=O)O)CC1)c1cccc(/C=C/c2ccc3ccc(Cl)cc3n2)c1 [Montelukast]	8.90
CC(C)c1nc(CN(C)C(=O)N[C@H](C(=O)N[C@@H](Cc2ccccc2)C[C@H](O)[C@H](Cc2ccccc2)NC(=O)OCc2cncs2)C(C)C)cs1 [Ritonavir]	150

Molecular target: T3, CYP26A1 (Homo sapiens, UniProt O43174)
T3 sequence (O43174 1-497): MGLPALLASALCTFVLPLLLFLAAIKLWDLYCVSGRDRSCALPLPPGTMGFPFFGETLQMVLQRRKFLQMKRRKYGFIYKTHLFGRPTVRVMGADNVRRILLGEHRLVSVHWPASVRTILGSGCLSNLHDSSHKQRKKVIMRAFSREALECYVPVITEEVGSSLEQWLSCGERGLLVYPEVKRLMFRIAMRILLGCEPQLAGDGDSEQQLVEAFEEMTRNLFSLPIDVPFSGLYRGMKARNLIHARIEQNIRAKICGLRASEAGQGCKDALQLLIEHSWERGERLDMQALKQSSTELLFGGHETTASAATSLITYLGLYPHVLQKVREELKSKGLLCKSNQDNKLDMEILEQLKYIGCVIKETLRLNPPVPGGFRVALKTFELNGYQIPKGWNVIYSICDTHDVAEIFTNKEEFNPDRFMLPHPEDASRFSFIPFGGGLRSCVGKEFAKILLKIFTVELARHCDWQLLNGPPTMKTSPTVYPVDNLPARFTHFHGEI
Assay: Inhibition of CYP26A1-catalyzed tazarotenic acid sulfoxide formation
Type: biochemical
Settings: not given

Compound	IC50 [nM]
C=C(c1ccc(C(=O)O)cc1)c1cc2c(cc1C)C(C)(C)CCC2(C)C [Bexarotene]	1310 ± 480

Same assay, conditions: CYP26A1 IC50, tazarotenic acid, recombinant CYP26A1; probe tazarotenic acid sulfoxide formation; ± standard error

Compound	IC50 [nM]
OC(Cn1cncn1)(Cn1cncn1)c1ccc(F)cc1F [Fluconazole]	700 ± 190
CCC(C)n1ncn(-c2ccc(N3CCN(c4ccc(OCC5COC(Cn6cncn6)(c6ccc(Cl)cc6Cl)O5)cc4)CC3)cc2)c1=O (stereo not shown) [Itraconazole]	550 ± 90
CC(C)(O)c1ccccc1CC[C@@H](SCC1(CC(=O)O)CC1)c1cccc(/C=C/c2ccc3ccc(Cl)cc3n2)c1 [Montelukast]	120 ± 20

Same assay, conditions: read-out: CYP26A1 IC50, tazarotenic acid; recombinant CYP26A1; probe tazarotenic acid sulfoxide formation; ± standard error

Compound	IC50 [nM]
CCC(CC)C(c1ccc(Nc2nc3ccccc3s2)cc1)n1cncn1 (stereo not shown) [Talarazole]	20 ± 10
CC1(C)CCC(C)(C)c2cc(C3(c4ccc(C(=O)O)cc4)OCCO3)ccc21 [SR11237]	810 ± 340
CC1(C)CCC(C)(C)c2cc(C#Cc3ccc(C(=O)O)cc3)ccc21 [EC23]	1600 ± 740
CC1(C)CCC(C)(C)c2cc(NC(=O)c3ccc(C(=O)O)cc3)ccc21 [AM80]	2890 ± 240
O=C(O)c1ccc2cc(-c3ccc(O)c(C45CC6CC(CC(C6)C4)C5)c3)ccc2c1 [CD437]	10 ± 10
CC1(C)CCC(C)(C)c2cc(C3(c4ccc5cc(C(=O)O)ccc5c4)SCCS3)ccc21 [MM11253]	20 ± 10

Tested on: CYP26A1
Assay: not given
Settings: in vitro; ref [97]; cited from earlier work

Compound	Inhibition of CYP26A1-catalyzed 4-hydroxyretinoic acid formation
OC(Cn1cncn1)(Cn1cncn1)c1ccc(F)cc1F [Fluconazole]	not be inhibitors

Tested on: not given
Assay: not given
Settings: patient with acute promyelocytic leukemia, co-administration of oral fluconazole; ref [102]; cited from earlier work

Compound	Increase of AUC of orally administered retinoic acid [fold]	Increase of Cmax of orally administered retinoic acid [fold]
OC(Cn1cncn1)(Cn1cncn1)c1ccc(F)cc1F [Fluconazole]	4	6
